# According to patent publication US8629173B2, “Solid forms comprising (+)-2-[1-(3-ethoxy-4-methoxyphenyl)-2-methylsulfonylethyl]-4-acetylaminoisoindoline-1,3-dione, compositions thereof, and uses thereof” (Celgene Corporation, priority 2002, dated 2014):
# Columns and labels:
# [1] = tested on: PDE4 (from U937 cells); experiment: PDE4 (U937 cell-derived) enzyme assay; format: biochemical, human; conditions: 1 μM cAMP
# [2] = target: human PDE2 (Homo sapiens, UniProt O00408); experiment: PDE2 enzyme assay; format: biochemical
# human PDE2, sequence (O00408 whole entry): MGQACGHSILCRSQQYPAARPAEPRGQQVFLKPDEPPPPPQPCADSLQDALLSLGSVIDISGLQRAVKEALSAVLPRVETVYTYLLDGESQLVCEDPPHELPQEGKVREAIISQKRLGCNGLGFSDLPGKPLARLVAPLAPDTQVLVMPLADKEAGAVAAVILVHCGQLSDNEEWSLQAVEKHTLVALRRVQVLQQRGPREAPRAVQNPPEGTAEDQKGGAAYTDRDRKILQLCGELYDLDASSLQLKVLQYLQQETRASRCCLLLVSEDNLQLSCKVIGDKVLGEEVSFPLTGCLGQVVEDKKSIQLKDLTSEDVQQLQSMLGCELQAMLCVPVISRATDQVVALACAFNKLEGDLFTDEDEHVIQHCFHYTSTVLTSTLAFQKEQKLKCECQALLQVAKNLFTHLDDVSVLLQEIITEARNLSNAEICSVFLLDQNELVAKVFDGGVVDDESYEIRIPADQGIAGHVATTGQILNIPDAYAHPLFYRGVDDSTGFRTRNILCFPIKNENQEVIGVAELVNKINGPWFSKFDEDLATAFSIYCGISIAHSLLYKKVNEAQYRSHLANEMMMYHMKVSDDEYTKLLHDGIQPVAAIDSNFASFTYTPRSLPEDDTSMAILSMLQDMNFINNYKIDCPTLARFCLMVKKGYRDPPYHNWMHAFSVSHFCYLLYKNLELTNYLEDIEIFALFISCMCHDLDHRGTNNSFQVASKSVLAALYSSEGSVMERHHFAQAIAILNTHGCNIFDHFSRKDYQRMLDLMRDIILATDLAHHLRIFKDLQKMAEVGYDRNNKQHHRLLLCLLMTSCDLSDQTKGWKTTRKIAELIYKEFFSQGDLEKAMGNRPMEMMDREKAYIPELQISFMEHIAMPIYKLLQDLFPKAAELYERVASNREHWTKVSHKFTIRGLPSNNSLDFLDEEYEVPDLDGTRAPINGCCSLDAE
# [3] = target: T1, PDE6 from bovine retinal rod outer segments (Bos taurus, UniProt P11541+P23439); experiment: PDE6 enzyme assay; format: biochemical
# T1 construct: PDE6 from bovine retinal rod outer segments; from tissue; host or cells: bovine retinal rod outer segments
# T1 sequence (P11541 2-856 limits assumed): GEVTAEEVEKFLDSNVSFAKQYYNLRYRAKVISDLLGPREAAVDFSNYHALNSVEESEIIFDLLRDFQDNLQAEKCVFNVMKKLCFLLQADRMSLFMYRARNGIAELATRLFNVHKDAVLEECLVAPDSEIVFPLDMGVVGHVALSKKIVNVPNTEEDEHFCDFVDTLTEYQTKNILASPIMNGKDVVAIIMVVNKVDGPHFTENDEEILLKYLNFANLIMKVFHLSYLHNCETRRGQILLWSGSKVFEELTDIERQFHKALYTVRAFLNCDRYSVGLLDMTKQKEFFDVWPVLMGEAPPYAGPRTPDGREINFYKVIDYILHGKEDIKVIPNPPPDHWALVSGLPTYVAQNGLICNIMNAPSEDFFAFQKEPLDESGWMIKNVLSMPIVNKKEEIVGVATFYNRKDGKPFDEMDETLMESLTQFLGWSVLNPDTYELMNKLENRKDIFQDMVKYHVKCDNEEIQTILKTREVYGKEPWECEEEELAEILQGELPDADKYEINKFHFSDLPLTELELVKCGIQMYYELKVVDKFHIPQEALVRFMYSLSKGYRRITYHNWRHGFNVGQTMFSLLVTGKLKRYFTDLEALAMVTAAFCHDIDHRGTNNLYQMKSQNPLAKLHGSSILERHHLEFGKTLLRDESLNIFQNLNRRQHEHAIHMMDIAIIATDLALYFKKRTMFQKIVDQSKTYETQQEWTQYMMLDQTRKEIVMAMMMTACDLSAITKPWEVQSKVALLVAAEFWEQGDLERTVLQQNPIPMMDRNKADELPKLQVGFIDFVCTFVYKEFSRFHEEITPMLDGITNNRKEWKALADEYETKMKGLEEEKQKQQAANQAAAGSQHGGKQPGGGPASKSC
# T1 sequence (P23439 2-850 limits assumed): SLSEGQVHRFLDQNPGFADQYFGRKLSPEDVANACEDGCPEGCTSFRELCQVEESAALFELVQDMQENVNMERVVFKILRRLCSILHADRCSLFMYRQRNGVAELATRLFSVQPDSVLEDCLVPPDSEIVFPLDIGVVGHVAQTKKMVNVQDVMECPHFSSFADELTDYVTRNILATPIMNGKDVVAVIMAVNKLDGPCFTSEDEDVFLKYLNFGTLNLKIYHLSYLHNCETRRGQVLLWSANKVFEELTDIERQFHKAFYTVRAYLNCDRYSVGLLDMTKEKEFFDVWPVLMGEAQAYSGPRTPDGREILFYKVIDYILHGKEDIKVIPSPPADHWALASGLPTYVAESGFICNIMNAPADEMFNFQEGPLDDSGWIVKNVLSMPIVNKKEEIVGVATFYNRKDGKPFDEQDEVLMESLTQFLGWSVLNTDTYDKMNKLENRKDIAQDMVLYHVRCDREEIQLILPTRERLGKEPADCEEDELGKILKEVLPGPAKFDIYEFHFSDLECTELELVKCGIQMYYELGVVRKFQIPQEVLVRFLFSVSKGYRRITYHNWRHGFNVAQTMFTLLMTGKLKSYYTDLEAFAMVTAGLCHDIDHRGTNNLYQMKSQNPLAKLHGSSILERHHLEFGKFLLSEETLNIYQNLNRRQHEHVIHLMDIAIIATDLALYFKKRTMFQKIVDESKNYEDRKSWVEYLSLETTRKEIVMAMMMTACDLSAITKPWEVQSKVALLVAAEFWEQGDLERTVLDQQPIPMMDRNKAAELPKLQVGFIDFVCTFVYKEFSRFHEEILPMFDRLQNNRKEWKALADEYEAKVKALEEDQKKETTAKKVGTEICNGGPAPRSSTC
# [4] = tested on: CD18 expression on neutrophils; experiment: fMLF-induced CD18 expression on neutrophils; format: cell-based; conditions: Neutrophil; human neutrophils, 30 nM fMLF
# Description: CD18/CD11b (Mac-1) expression on neutrophils was measured as previously described (Derian et al., 1995, J. Immunol., 154:308-3 17) with the following modifications. Neutrophils were isolated as described above, then resuspended in complete medium at 1×10^6 cells/ml, pretreated with compounds at 10, 1, 0.1, 0.01, and 0 μM in duplicate at a final DMSO concentration of 0.1% for 10 minutes at 37° C. 5% CO2. Cells were then stimulated with 30 nM fMLF for 30 minutes and then chilled to 4° C. Cells were treated with rabbit IgG (Jackson ImmunoResearch Labs, West Grove, Pa., USA) (10 μg/1×10^6 cells) to block Fc receptors, stained with CD18-FITC and CD11b-PE (Becton Dickinson), and analyzed by flow cytometry on a FACSCalibur. CD18/CD11b expression (mean fluorescence) in the absence of stimulation was subtracted from all samples to obtain inhibition curves and calculate IC50 values.
# [5] = tested on: LPS-induced neutrophilia in the lungs of conscious ferrets; experiment: LPS-induced lung neutrophilia ferret model; format: in vivo; conditions: Mustela putorius, po, read-out: Inhibition of LPS-induced neutrophilia (ED50)
# [6] = pH 7.4
smiles,measurement,setting,value
"CCOc1cc(C(CS(C)(=O)=O)N2C(=O)c3cccc(NC(C)=O)c3C2=O)ccc1OC (single isomer, unassigned; (+)) [Compound A, (+)-2-[1-(3-ethoxy-4-methoxyphenyl)-2-methylsulfonylethyl]-4-acetylaminoisoindoline-1,3-dione]",IC50,[1],73.5 nM
same,PDE Specificity Ratio PDE4/PDE2,[2]; from Table 1 data,>10000 fold
same,inhibition at 10 µM,[2]; read-out: PDE2 (% inhib at 10 μM),6%
same,PDE Specificity Ratio PDE4/PDE6,[3]; from Table 1 data,>40000 fold
same,inhibition at 10 µM,[3]; read-out: PDE6 (% inhib at 10 μM),-6%
same,IC50,[4],390 nM
same,ED50,[5],0.8 mg/kg
same,aqueous solubility relative to the racemic mixture,[6],3.5 fold
